SMILES strings stand for the structures.

The target in the assay is human RAF1 (Homo sapiens, UniProt P04049). Kind of assay: Protein kinase assay (33P-ATP filter binding), human RAF1, 10-dose IC50. The following applies: MEK1 (K97R) substrate 3 micromolar, ATP 10 micromolar, read-out: RAF-1 IC50. Type of assay: biochemical. The method, boiled down:
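Human RAF1 phosphorylated human MEK1 (K97R) substrate at 3 µM with 10 µM ATP (³³P), in pH 7.5 HEPES buffer with MgCl2, EGTA, Brij35, BSA, Na3VO4 and DTT. Reactions ran for 2 hr at room temperature with P81 filter capture.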

human RAF1, sequence (P04049 whole entry): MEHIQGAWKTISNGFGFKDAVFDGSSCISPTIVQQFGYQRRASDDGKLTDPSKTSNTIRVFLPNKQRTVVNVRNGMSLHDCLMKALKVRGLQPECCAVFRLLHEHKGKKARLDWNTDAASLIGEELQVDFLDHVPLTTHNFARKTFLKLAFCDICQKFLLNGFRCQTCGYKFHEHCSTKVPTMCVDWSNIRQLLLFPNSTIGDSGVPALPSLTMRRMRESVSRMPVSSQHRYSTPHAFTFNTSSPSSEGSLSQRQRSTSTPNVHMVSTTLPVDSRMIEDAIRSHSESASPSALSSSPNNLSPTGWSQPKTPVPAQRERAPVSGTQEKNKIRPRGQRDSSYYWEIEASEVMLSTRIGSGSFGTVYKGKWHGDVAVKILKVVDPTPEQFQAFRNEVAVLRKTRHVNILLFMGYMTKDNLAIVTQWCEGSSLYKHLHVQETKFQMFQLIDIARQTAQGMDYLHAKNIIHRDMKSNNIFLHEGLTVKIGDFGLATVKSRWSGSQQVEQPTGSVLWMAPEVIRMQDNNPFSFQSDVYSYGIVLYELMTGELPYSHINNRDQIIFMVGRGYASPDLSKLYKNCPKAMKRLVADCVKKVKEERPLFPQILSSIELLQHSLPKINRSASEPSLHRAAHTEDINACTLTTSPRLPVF

As usually defined, the IC50 is the midpoint of a concentration-inhibition curve. On to `Cc1ccc(NC(=O)N2CC[C@@H](CC(F)(F)F)C2)cc1-c1cc(OC2CCC(C)(O)CC2)nc(N2CCOCC2)c1` (stereo partly drawn) [Example 212, (3S)-N-(3-[2-[(4-hydroxy-4-methylcyclohexyl)oxy]-6-(morpholin-4-yl)pyridin-4-yl]-4-methylphenyl)-3-(2,2,2-trifluoroethyl)pyrrolidine-1-carboxamide (trans)], for which the half-inhibitory concentration (IC50) was under 10 nM. As to `Cc1ccc(NC(=O)N2CC[C@@H](OC(F)(F)F)C2)cc1-c1cc(OC[C@H](C)O)nc(N2CCOCC2)c1` [Example 213, (3R)-N-(3-[2-[(2S)-2-hydroxypropoxy]-6-(morpholin-4-yl)pyridin-4-yl]-4-methylphenyl)-3-(trifluoromethoxy)pyrrolidine-1-carboxamide], the IC50 was under 10 nM. Turning to `Cc1ccc(NC(=O)N2CC[C@@H](OC(F)(F)F)C2)cc1-c1cc(O[C@H](C)CO)nc(N2CCOCC2)c1` [Example 214, (3R)-N-[3-(2-[[(2R)-1-hydroxypropan-2-yl]oxy]-6-(morpholin-4-yl)pyridin-4-yl)-4-methylphenyl]-3-(trifluoromethoxy)pyrrolidine-1-carboxamide], the IC50 is under 10 nM. As to `Cc1ccc(NC(=O)N2CC[C@@H](OC(F)(F)F)C2)cc1-c1cc(O[C@@H](C)CO)nc(N2CCOCC2)c1` [Example 215, (3R)-N-[3-(2-[[(2S)-1-hydroxypropan-2-yl]oxy]-6-(morpholin-4-yl)pyridin-4-yl)-4-methylphenyl]-3-(trifluoromethoxy)pyrrolidine-1-carboxamide], the half-maximal inhibitory concentration (IC50) is under 10 nM.

For `Cc1ccc(NC(=O)N2CC=C(CC(F)(F)F)C2)cc1-c1cc(OCC(C)(C)O)nc(N2CCOCC2)c1` [Example 216, N-[3-[2-(2-hydroxy-2-methylpropoxy)-6-(morpholin-4-yl)pyridin-4-yl]-4-methylphenyl]-3-(2,2,2-trifluoroethyl)-2,5-dihydropyrrole-1-carboxamide], the IC50 is under 10 nM. `Cc1ccc(NC(=O)N2CC[C@@H](CC(F)(F)F)C2)cc1-c1cc(OC2CC(C)(O)C2)nc(N2CCOCC2)c1` (stereo partly drawn) [Example 217, (3S)-N-[3-[2-(3-hydroxy-3-methylcyclobutoxy)-6-(morpholin-4-yl)pyridin-4-yl]-4-methylphenyl]-3-(2,2,2-trifluoroethyl)pyrrolidine-1-carboxamide]: the IC50 was under 10 nM.

On to `Cc1ccc(NC(=O)N2CC[C@@H](CC(F)(F)F)C2)cc1-c1cc(OCC2(O)CC2)nc(N2CCOCC2)c1` [Example 218, (3S)-N-(3-[2-[(1-hydroxycyclopropyl)methoxy]-6-(morpholin-4-yl)pyridin-4-yl]-4-methylphenyl)-3-(2,2,2-trifluoroethyl)pyrrolidine-1-carboxamide], for which the IC50 is under 10 nM. As for `Cc1ccc(NC(=O)N2CC[C@@H](CC(F)(F)F)C2)cc1-c1cc(O[C@@H]2CCC(F)(F)C2)nc(N2CCOCC2)c1` [Example 219, (3S)-N-[3-(2-[[(1R)-3,3-difluorocyclopentyl]oxy]-6-(morpholin-4-yl)pyridin-4-yl)-4-methylphenyl]-3-(2,2,2-trifluoroethyl)pyrrolidine-1-carboxamide], the half-maximal inhibitory concentration (IC50) is under 10 nM. For `Cc1ccc(NC(=O)N2CC[C@@H](CC(F)(F)F)C2)cc1-c1cc(O[C@H]2CCC(F)(F)C2)nc(N2CCOCC2)c1` [Example 220, (3S)-N-[3-(2-[[(1S)-3,3-difluorocyclopentyl]oxy]-6-(morpholin-4-yl)pyridin-4-yl)-4-methylphenyl]-3-(2,2,2-trifluoroethyl)pyrrolidine-1-carboxamide] the value was under 10 nM. Regarding `Cc1ccc(NC(=O)N2CC[C@@H](CC(F)(F)F)C2)cc1-c1cc(OCCS(C)(=N)=O)nc(N2CCOCC2)c1` (stereo partly drawn) [Example 221, (3S)-N-[3-(2-[2-[imino(methyl)oxo-λ^6-sulfanyl]ethoxy]-6-(morpholin-4-yl)pyridin-4-yl)-4-methylphenyl]-3-(2,2,2-trifluoroethyl)pyrrolidine-1-carboxamide], the half-maximal inhibitory concentration (IC50) is under 10 nM. Consider `Cc1ccc(NC(=O)N2CC=C(CC(F)(F)F)C2)cc1-c1cc(OC[C@@H](C)O)nc(N2CCOCC2)c1` [Example 222, (R)-N-(3-(2-(2-hydroxypropoxy)-6-morpholinopyridin-4-yl)-4-methylphenyl)-3-(2,2,2-trifluoroethyl)-2,5-dihydro-1H-pyrrole-1-carboxamide], for which the IC50 was under 10 nM. As to `Cc1ccc(NC(=O)N2CC[C@@H](CC(F)(F)F)C2)cc1-c1cc(OC2CCC(C)(O)C2)nc(N2CCOCC2)c1` (stereo partly drawn) [Example 223, (3S)-N-(3-[2-[(3-hydroxy-3-methylcyclopentyl)oxy]-6-(morpholin-4-yl)pyridin-4-yl]-4-methylphenyl)-3-(2,2,2-trifluoroethyl)pyrrolidine-1-carboxamide], the half-maximal inhibitory concentration (IC50) was under 10 nM. Regarding `Cc1ccc(NC(=O)N2CC[C@@H](CC(F)(F)F)C2)cc1-c1cc(OCC2(O)COC2)nc(N2CCOCC2)c1` [Example 224, (3S)-N-(3-[2-[(3-hydroxyoxetan-3-yl)methoxy]-6-(morpholin-4-yl)pyridin-4-yl]-4-methylphenyl)-3-(2,2,2-trifluoroethyl)pyrrolidine-1-carboxamide], the IC50 was under 10 nM. For the molecule `Cc1ccc(NC(=O)N2CC[C@@H](CC(F)(F)F)C2)cc1-c1cc(OCCC2(O)COC2)nc(N2CCOCC2)c1` [Example 225, (3S)-N-(3-[2-[2-(3-hydroxyoxetan-3-yl)ethoxy]-6-(morpholin-4-yl)pyridin-4-yl]-4-methylphenyl)-3-(2,2,2-trifluoroethyl)pyrrolidine-1-carboxamide], the IC50 is under 10 nM. With `Cc1ccc(NC(=O)N2CC[C@@H](CC(F)(F)F)C2)cc1-c1cncc(N2CCOCC2)c1` [Example 226, (3S)-N-[4-methyl-3-[5-(morpholin-4-yl)pyridin-3-yl]phenyl]-3-(2,2,2-trifluoroethyl)pyrrolidine-1-carboxamide], the IC50 is under 10 nM.

Consider `Cc1ccc(NC(=O)N2CC[C@@H](CC(F)(F)F)C2)cc1-c1cc(OC[C@@H](C)O)nc(N2CCO[C@@H](C)C2)c1` [Example 227, (3S)-N-(3-[2-[(2R)-2-hydroxypropoxy]-6-[(2S)-2-methylmorpholin-4-yl]pyridin-4-yl]-4-methylphenyl)-3-(2,2,2-trifluoroethyl)pyrrolidine-1-carboxamide], for which the IC50 was under 10 nM. For `Cc1ccc(NC(=O)N2CC[C@@H](CC(F)(F)F)C2)cc1-c1cc(OC[C@@H](C)O)nc(N2CCO[C@H](C)C2)c1` [Example 228, (S)-N-(3-(2-((R)-2-hydroxypropoxy)-6-((R)-2-methylmorpholino)pyridin-4-yl)-4-methylphenyl)-3-(2,2,2-trifluoroethyl)pyrrolidine-1-carboxamide] the value was under 10 nM. Consider `Cc1ccc(NC(=O)N2CC[C@@H](CC(F)(F)F)C2)cc1-c1cc(OC[C@@H](C)O)nc(N2CC3(COC3)C2)c1` [Example 229, (3S)-N-(3-[2-[(2R)-2-hydroxypropoxy]-6-[2-oxa-6-azaspiro[3.3]heptan-6-yl]pyridin-4-yl]-4-methylphenyl)-3-(2,2,2-trifluoroethyl)pyrrolidine-1-carboxamide], for which the IC50 is under 10 nM. In the case of `Cc1ccc(NC(=O)N2CC[C@@H](CC(F)(F)F)C2)cc1-c1cc(OC[C@@H](C)O)nc(N2CCOC3CC32)c1` (stereo partly drawn) [Example 230, (3S)-N-(3-(2-(2-oxa-5-azabicyclo[4.1.0]heptan-5-yl)-6-((R)-2-hydroxypropoxy)pyridin-4-yl)-4-methylphenyl)-3-(2,2,2-trifluoroethyl)pyrrolidine-1-carboxamide] it was under 10 nM.

The record behind these values is US20230081390A1, “INHIBITORS OF RAF KINASES” (Kinnate Biopharma Inc., priority 2019, published 2023).
